This note sets out measurements from EP4818187A1, “COMPOUND AND USE THEREOF” (Ganzhou Hemay Pharmaceutical, Co., Ltd, priority 2023, dated 2025).

What all share (assay type): cell-based
Assay [1] has as its system SK-OV-3 (human ovarian cancer). Put plainly: In vitro inhibitory effect against human tumor cells (MTT). Conditions: SK-OV-3, 72 h, SK-OV-3, MTT, 3 days.
For assay [2], the system named is NCI-N87 (human gastric cancer cell). The assay is described as above. To be noted: NCI-N87, 72 h, 3 days.
The test system of assay [3] is HCT116 (human colorectal cancer). Described as above. To be noted: HCT-116, 72 h, 3 days.
In assay [4] the test system is Fadu (human pharyngeal squamous cell carcinoma). The description is as above. Conditions: 72 h, 3 days.
Assay [5] has as its system NCI-H1975 (human non-small cell lung cancer). Described as above. To be noted: NCI-H1975, 72 h, 3 days.
The subject of assay [6] is BxPC-3 (human pancreatic cancer in situ). The assay is described as follows: In vitro inhibitory effect against human tumor cells (MTT or SRB). To be noted: BXPC-3, 72 h, BxPC-3, test method printed MTT (head: SRB), 3 days.
Assay [7] has as its system MDA-MB-468 (human triple-negative breast cancer). The assay is described as follows: In vitro inhibitory effect against human tumor cells (SRB). To be noted: MDA-MB-468, 72 h, MDA-MB-468, SRB, 3 days.
The test system of assay [8] is HCC827 (human non-small cell lung cancer). The description is as above. Conditions: HCC827, 72 h, 3 days.
For assay [9], the system named is HepG2 (human liver cancer cell). The assay is described as above. Conditions: HepG2, 72 h, 3 days.
The test system of assay [10] is SW620 (human colorectal cancer). Described as above. Conditions: SW-620, 72 h, 3 days.
In assay [11] the test system is 22RV1 (human prostate cancer). The assay is described as above. To be noted: 22Rv1, 72 h, 22RV1, SRB, 3 days.
For assay [12], the system named is A375 (human malignant melanoma). The assay is described as above. Conditions: A-375, 72 h, 3 days.
Where [13] appears, read: With addition of βGU (1 µg/well).

Each structure is given as a SMILES string.

As a reminder, the IC50 is the concentration at which inhibition is half-maximal. Read a high IC50 as a need for much substance. In the case of `CC[C@H](C)[C@@H]([C@@H](CC(=O)N1CCC[C@H]1[C@H](OC)[C@@H](C)C(=O)N[C@H](C)[C@@H](OCc1ccc(O[C@@H]2O[C@H](C(=O)[O-])[C@@H](O)[C@H](O)[C@H]2O)cc1OCc1cn(CCCCCC(=O)Nc2ccc(-c3ccc(/N=N/c4ccc5c(S(=O)(=O)[O-])cc(S(=O)(=O)[O-])c(N)c5c4O)c(C)c3)cc2C)nn1)c1ccccc1)OC)N(C)C(=O)[C@@H](NC(=O)[C@H](C(C)C)N(C)C)C(C)C.[Na+].[Na+].[Na+]` [Example compound 2], the IC50 in assay [1] (setting [13]) came to 6.1 nM; in assay [1] (βGU-free) it was 211 nM; in assay [2] (setting [13]), 5.6 nM; in [2] (βGU-free), 81 nM; in [3] (setting [13]), 6.1 nM; in assay [3] (βGU-free), 143 nM. Further, the IC50 turned out to be 2.7 nM in [4] (setting [13]); 38 nM in assay [4] (βGU-free); 4.3 nM in [5] (setting [13]); 114 nM in assay [5] (βGU-free); 3.9 nM in [6] (setting [13]); 43 nM in assay [6] (βGU-free). Further, the IC50 in [7] (setting [13]) was determined as 2.7 nM; in assay [7] (βGU-free), 24 nM; in assay [8] (setting [13]), 3.8 nM; in [8] (βGU-free), 110 nM; in assay [9] (setting [13]) it was 4.3 nM; in assay [9] (βGU-free) it was 120 nM. The IC50 in assay [10] (setting [13]) amounted to 6.7 nM; in assay [10] (βGU-free), 81 nM; in [11] (setting [13]), 7.5 nM; in [11] (βGU-free), 176 nM; in [12] (setting [13]), 6.7 nM; in [12] (βGU-free), 212 nM.
